The values that follow come from patent publication US20210128554A1, “ANTI-FLAVIVIRIDAE ACTIVITY OF ANTI-RETROVIRAL NON-NUCLEOSIDE (NNRTIS) AND NUCLEOSIDE REVERSE TRANSCRIPTASE INHIBITORS (NNRTIS)” (priority 2016, published 2021).

The subject of the assay is Zika virus. Kind of assay: ZIKV copy numbers released by primary human fetal astrocytes treated with NNRTIs (Real-time Q-RT-PCR). In kind it is cell-based. The note with it: ZIKV 0.1 MOI, 5, 10, and 25 μM at 24, 48, 72 hrs, culture media at 96 hrs. The protocol:
FIG. 6 is a graph showing that Zika virus replication is suppressed by antiretroviral HIV-1 non-nucleoside reverse transcriptase inhibitors (NNRTIs) in primary astrocytes: Primary human fetal astrocytes were plated in 6 well tissue culture dishes and infected with ZIKV at 0.1 MOI. At 24, 48, and 72 hrs post-infections, cells were treated with increasing concentrations of anti-retroviral non-nucleoside reverse transcriptase inhibitors Rilpivirine, Efavirenz, and Etravirine at 5, 10, and 25 μM concentrations. Culture media of the infected cells were collected at 96 hrs post-infections and subjected to Real-time Q-RT-PCR for the detection and quantification of ZIKV copy numbers released by infected cells.

As for `O=C1Nc2ccc(Cl)cc2[C@@](C#CC2CC2)(C(F)(F)F)O1` [Efavirenz], the “Zika virus replication (ZIKV copy numbers released by infected cells)” value is reported as “suppressed”.

Take `Cc1cc(C#N)cc(C)c1Oc1nc(Nc2ccc(C#N)cc2)nc(N)c1Br` [Etravirine]: the “Zika virus replication (ZIKV copy numbers released by infected cells)” value was “suppressed”.
